Measured values: paper PMC6540952 (Chemical Science, 2019)

Target: IP6K1 (Homo sapiens, UniProt Q92551)
Test: NMR kinase activity assay with [[…]6]InsP6, […] ATP
Type: biochemical

IP6K1, sequence (Q92551 whole entry): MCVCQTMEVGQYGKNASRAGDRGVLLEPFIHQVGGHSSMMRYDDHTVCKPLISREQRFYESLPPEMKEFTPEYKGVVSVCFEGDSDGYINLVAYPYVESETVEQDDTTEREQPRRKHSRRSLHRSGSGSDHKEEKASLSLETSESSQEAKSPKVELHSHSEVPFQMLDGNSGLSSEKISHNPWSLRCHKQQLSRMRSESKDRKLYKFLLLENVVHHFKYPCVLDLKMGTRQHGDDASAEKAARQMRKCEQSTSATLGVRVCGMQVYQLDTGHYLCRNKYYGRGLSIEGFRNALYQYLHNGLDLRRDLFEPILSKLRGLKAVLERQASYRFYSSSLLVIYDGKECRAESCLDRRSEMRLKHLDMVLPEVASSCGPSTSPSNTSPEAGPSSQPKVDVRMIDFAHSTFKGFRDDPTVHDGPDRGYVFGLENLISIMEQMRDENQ

IC50: 2250 nM
Structure (SMILES): O=[N+]([O-])c1ccc(CNc2nc(NCc3cccc(C(F)(F)F)c3)nc3[nH]cnc23)cc1 [TNP]
